Experimental findings from US10258664B2, “Methods and compositions for treating pain” (MannKind Corporation, priority 2011, dated 2019) are described below.

One series concerns patient. As to the kind of experiment: Patient examples: inhaled analgesic composition, patient-reported pain. The class given is in vivo, human. The method, then: patient one reports headache pain to their doctor. […] The analgesic composition is 15% peptide. The analgesic composition is administered with a reusable inhaler calibrated to provide a dose of 5 mg/kg of body weight.
A patient undergoing chemotherapy reports stomach pain to their doctor. […] The analgesic composition is 15% peptide. The analgesic composition is administered with a reusable inhaler calibrated to provide a dose of 5 mg/kg of body weight.
A patient reports back pain to their doctor. Following examination of the patient, the doctor prescribes an analgesic composition containing a FDKP/Trp-(D)Pro-Ser-Phe-NH2 (SEQ ID NO: 3, Compound 3), composition prepared as described in the previous Examples. The analgesic composition is 15% peptide. The analgesic composition is administered with a reusable inhaler calibrated to provide a dose of 4 mg/kg of body weight.
A patient reports dental pain to their doctor. Following examination of the patient, the doctor prescribes an analgesic composition containing an Na2FDKP/Ac-His-(D)Phe-Arg-(D)Trp-Gly-NH2 (SEQ ID NO: 6, Compound 6) composition prepared as described in the previous Examples. The analgesic composition is 10% peptide. The analgesic composition is administered with a reusable inhaler calibrated to provide a dose of 7 mg/kg of body weight.
A patient reports pain due to multiple sclerosis to their doctor. […] The analgesic composition is 20% peptide. The analgesic composition is administered with a reusable inhaler calibrated to provide a dose of 3 mg/kg of body weight.
patient two reports muscle pain to their doctor. Following examination of the patient, the doctor prescribes an analgesic composition containing a FDKP/Ac-His-(D)Phe-Arg-(D)Trp-Gly-NH2 (SEQ ID NO: 6, Compound 6) composition prepared as described in the previous Examples. The analgesic composition is 15% peptide. The analgesic composition is administered with a reusable inhaler calibrated to provide a dose of 5 mg/kg of body weight.
A patient reports pain from a broken arm to their doctor. Following examination of the patient, the doctor prescribes an analgesic composition containing a Na2FDKP/Trp-(D)Ser-Ser-Phe-NH2 (SEQ ID NO: 4, Compound 4) composition prepared as described in the previous Examples. The analgesic composition is 25% peptide. The analgesic composition is administered with a reusable inhaler calibrated to provide a dose of 2 mg/kg of body weight.
A patient reports their low pain threshold to their dentist. Following examination of the patient and prior to the dental procedure, the dentist administers an analgesic composition containing a FDKP/Ac-Nle-Gln-His-(D)Phe-Arg-(D)Trp-Gly-NH2 (SEQ ID NO:7, Compound 7) composition prepared as described in the previous Examples. The analgesic composition is 10% peptide. The analgesic composition is administered with a single-use inhaler designed to provide a dose of 5 mg/kg of body weight.

For series [1], the system named is mice. Nature of the series: 55° C. warm-water tail withdrawal (tail-flick) assay. Format: in vivo, mouse. Particulars: FIG. 1; for plateau of antinociceptive effect: insufflated. On the procedure: Antinociceptive effect was tested in a mouse tail-withdrawal (“tail-flick,” Aldrich et al. 2009) assay in which the tail of a restrained mouse is exposed to water at 55° C. […] Durations shorter than the maximum are reported as a percentage of the time limit. This tail-flick test (also known as the 55° C. warm-water tail withdrawal assay) is an industry acceptable, nonclinical model for assessing the efficacy of analgesics in treating acute pain. To test placebo effect, FDKP (TECHNOSPHERE®) powder (0.5 mg) without any peptide was used in the study. Each animal is tested for baseline tail-withdrawal latency prior to drug administration. Latency to withdraw the tail was subsequently measured in 10 minutes post-drug administration intervals as indicated. A maximum response time of 15 seconds was utilized to prevent tissue damage. Data reported as percent antinociception, as calculated by the following equation: % antinociception is equal to 100 times (test latency minus baseline latency) divided by (15 minus baseline latency).
The tetrapetide, (D)Phe-(D)Phe-(D)Nle-(D)Arg-NH2 (SEQ ID NO: 2, Compound 2) was administered to mice by intraperitoneal (i.p.) injection (3 mg/kg) in a saline solution, and by pulmonary insufflation of a dry powder formulation containing FDKP at various doses, 0.25 mg, 0.125 mg, 0.013 mg, 1.25 μg and 0.13 μg. The tail-flick test was performed for a period of time after administration. […]

The test system of series [2] is mice. Nature of the series: Conditioned place preference (CPP) study. The note with it: 0.125 mg insufflated; FIG. 5. On the procedure: In a conditioned place preference (CPP) study to evaluate the “reward” or “aversive” value of the drug, mice are conditioned to associate one compartment of the apparatus with treatment. […] The experiments were conducted similarly as described in the previous examples. […] To test placebo effect, additional mice were insufflated with FDKP (TECHNOSPHERE®) powder (0.5 mg) without any peptide.

The subject of series [3] is mice. Nature of the series: Spontaneous locomotion and respiration in the comprehensive laboratory animal monitoring system (CLAMS). The note with it: 0.125 mg by insufflation; for ambulation (spontaneous locomotion): FIG. 4A; for respiration rate: FIG. 4B.

Residues, ends and D or L forms follow the SMILES beside them.

Turning to “Ac-His-(D)Phe-Arg-(D)Trp-Gly-NH2 (HXRXG; HELM PEPTIDE1{[ac].H.[dF].R.[dW].G.[am]}$$$$V2.0; SMILES CC(=O)N[C@@H](Cc1c[nH]cn1)C(=O)N[C@H](Cc1ccccc1)C(=O)N[C@@H](CCCNC(=N)N)C(=O)N[C@H](Cc1c[nH]c2ccccc12)C(=O)NCC(N)=O) [Compound 6]”, in the series on patient (FDKP composition, 15% peptide, inhaled 5 mg/kg, person two), the patient-reported muscle pain entry was “elimination of their muscle pain”. In addition, the patient-reported dental pain result with patient (Na2FDKP composition, 10% peptide, inhaled 7 mg/kg, person) was “elimination of their dental pain”.
As for “Ac-Nle-Gln-His-(D)Phe-Arg-(D)Trp-Gly-NH2 [Compound 7]”, the “patient-reported pain during dental procedure” value in the series on patient (FDKP composition, 10% peptide, single-use inhaler 5 mg/kg, given before procedure, person) was “no pain during the dental procedure”.
As for `NC(=O)[C@H](Cc1ccccc1)NC(=O)[C@H](CO)NC(=O)[C@H]1CCCN1C(=O)[C@@H](N)Cc1c[nH]c2ccccc12` [Compound 3, Trp-(D)Pro-Ser-Phe-NH2] (HELM PEPTIDE1{W.[dP].S.F.[am]}$$$$V2.0), the patient-reported back pain result in the series with patient (FDKP composition, 15% peptide, inhaled 4 mg/kg, person) is recorded as “elimination of their back pain”.
Regarding `CCCC[C@@H](NC(=O)[C@@H](Cc1ccccc1)NC(=O)[C@H](N)Cc1ccccc1)C(=O)N[C@H](CCCNC(=N)N)C(N)=O` [Compound 2, (D)Phe-(D)Phe-(D)Nle-(D)Arg-NH2] (HELM PEPTIDE1{[dF].[dF].[CCCC[C@@H](N[*:1])C(=O)[*:2]].[dR].[am]}$$$$V2.0; N-terminus assumed), in the series with mice [1] (all doses: i.p. 3 mg/kg in saline and insufflated FDKP dry powder 0.25 mg to 0.13 μg), the “antinociception effect versus time” value is “rapidly provided near-complete antinociception”. Besides, the “time course of antinociceptive effect” value in the series with mice [1] (i.p. injection 3 mg/kg in saline) is given as “decayed almost linearly with time”. Moreover, the “dose response of antinociception” value in the series on mice [1] (insufflated FDKP dry powder 0.25 mg to 0.13 μg) was “clear dose response was evident”. In addition, the “plateau of antinociceptive effect” value in the series on mice [1] (0.125 mg dose) was “approximately 30 minutes”. For the same compound, the “plateau of antinociceptive effect” value in the series on mice [1] (0.25 mg dose) lay in the range of 50 to 55 min. For the same compound, the “place preference for the drug-paired compartment” value (“place preference” below) with mice [2] is listed as “no preference for the paired compartment”. In addition, in the series on patient (FDKP composition, 15% peptide, inhaled 5 mg/kg, person one), the patient-reported headache pain result is recorded as “elimination of their headache pain”. For the same compound, the “patient-reported pain due to multiple sclerosis” value with patient (Na2FDKP composition, 20% peptide, inhaled 3 mg/kg, person) is “elimination of their multiple sclerosis pain”. Further, in the series with mice [3], the “ambulation (spontaneous locomotion)” value is “comparable to animals receiving placebo” and the respiration rate result is given as “comparable to animals receiving placebo”.
On to `CN1CC[C@]23c4c5ccc(O)c4O[C@H]2[C@@H](O)C=C[C@H]3[C@H]1C5` [morphine, reference compound], for which the “place preference” value in the series on mice [2] is “strong preference for the associated compartment”. In the series on mice [3], the “ambulation (spontaneous locomotion)” value is given as “locomotor hyperactivity” and the respiration rate entry is reported as “depress the rate of respiration”.
Turning to `CC[C@@H](C)[C@@H](NC(=O)[C@@H](Cc1ccccc1)NC(=O)[C@H](N)Cc1ccccc1)C(=O)N[C@H](CCCNC(=N)N)C(N)=O` [Compound 1, (D)Phe-(D)Phe-(D)Ile-(D)Arg-NH2], the “place preference” value with mice [2] is reported as “no preference for the paired compartment”. In addition, in the series with mice [3], the “ambulation (spontaneous locomotion)” value is “comparable to animals receiving placebo” and the respiration rate entry was “comparable to animals receiving placebo”.
On to `NC(=O)[C@H](Cc1ccccc1)NC(=O)[C@H](CO)NC(=O)[C@@H](CO)NC(=O)[C@@H](N)Cc1c[nH]c2ccccc12` [Compound 4, Trp-(D)Ser-Ser-Phe-NH2] (HELM PEPTIDE1{W.[dS].S.F.[am]}$$$$V2.0), for which the “patient-reported pain from a broken arm” value in the series with patient (Na2FDKP composition, 25% peptide, inhaled 2 mg/kg, person) is given as “elimination of their pain”.
